# Measurements as given in US6525001B1, “Substituted pyrimidine and pyridine herbicides” (Mid-American Commercialization Corporation, priority 1997, dated 2003).
# Assays:
# Assay type in all cases: in vivo
# [1] = tested on: purple nutsedge (Cyperus rotundus); assay: Test B pre-/postemergence; set-up: key: 0 is no effect; 10 is complete control
# Method in brief: (§1)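 Response scores run from 0, meaning no effect, to 10, meaning complete control, assigned by eye relative to controls twelve to sixteen days after spraying. Treatment was both preemergence on planted seed and postemergence on plants at the 1- to 4-leaf stage.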
# [2] = tested on: crabgrass (Digitaria sanguinalis); assay: Test B pre-/postemergence; set-up: key: 0 is no effect; 10 is complete control
# Method in brief: as §1
# [3] = tested on: wheat (Triticum aestivum); assay: Test B pre-/postemergence; set-up: key: 0 is no effect; 10 is complete control
# Method in brief: as §1
# [4] = tested on: giant foxtail (Setaria faberii); assay: Test B pre-/postemergence; set-up: key: 0 is no effect; 10 is complete control
# Method in brief: as §1
# rape (Brassica napus) = assay: Test B pre-/postemergence; set-up: key: 0 is no effect; 10 is complete control
# Method in brief: as §1
# soybean (Glycine max) = assay: Test B pre-/postemergence; set-up: key: 0 is no effect; 10 is complete control
# Method in brief: as §1
# [5] = tested on: velvetleaf (Abutilon theophrasti); assay: Test B pre-/postemergence; set-up: key: 0 is no effect; 10 is complete control
# Method in brief: as §1
# corn (Zea mays) = assay: Test B pre-/postemergence; set-up: key: 0 is no effect; 10 is complete control
# Method in brief: as §1
# wild oat (Avena fatua) = assay: Test B pre-/postemergence; set-up: key: 0 is no effect; 10 is complete control
# Method in brief: as §1
# [6] = tested on: sugar beet (Beta vulgaris); assay: Test B pre-/postemergence; set-up: key: 0 is no effect; 10 is complete control
# Method in brief: as §1
# [7] = tested on: bedstraw (Galium aparine); assay: Test B pre-/postemergence; set-up: key: 0 is no effect; 10 is complete control
# Method in brief: as §1
# rice (Oryza sativa) = assay: Test B flood test
# Method in brief: (§2)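 Each value is a visual injury score relative to controls, with 10 meaning complete control and 0 no effect. Evaluation took place twelve to sixteen days after the 2-leaf-stage plants were treated and kept in the greenhouse.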
# [8] = tested on: duck salad (Heteranthera limosa); assay: Test B flood test
# Method in brief: as §2
# [9] = tested on: bamyardgrass (Echinochloa crus-galli); assay: Test B flood test
# Method in brief: as §2
# [10] = tested on: smallflower flatsedge (Cyperus difformis); assay: Test B flood test
# Method in brief: as §2
# [11] = Rate 62 g/ha, Postemergence (flood test)
# [12] = Rate 125 g/ha, Postemergence, flood test
# [13] = Rate 250 g/ha, Postemergence (flood test species)
# [14] = Rate 500 g/ha, Postemergence (flood test species)
compound,measurement,setting,value
Cc1cnc(-c2ccc(C(F)(F)F)cc2)nc1Cn1ccc(C(F)(F)F)n1 [compound 9],"Plant response rating, Nutsedge","[1]; Rate 62 g/ha, Postemergence",0
same,Nutsedge plant response rating,"[1]; Rate 62 g/ha, Preemergence",0
same,"Plant response rating, Nutsedge","[1]; Rate 125 g/ha, Postemergence",1
same,Nutsedge plant response rating,"[1]; Rate 125 g/ha, Preemergence",0
same,"Plant response rating, Nutsedge","[1]; Rate 250 g/ha, Postemergence",3
same,"Plant response rating, Nutsedge","[1]; Rate 250 g/ha, Preemergence",0
same,"Plant response rating, Nutsedge","[1]; Rate 500 g/ha, Postemergence",3
same,"Plant response rating, Nutsedge","[1]; Rate 500 g/ha, Preemergence",0
same,"Plant response rating, Crabgrass","[2]; Rate 62 g/ha, Postemergence",9
same,Crabgrass plant response rating,"[2]; Rate 62 g/ha, Preemergence",9
same,"Plant response rating, Crabgrass","[2]; Rate 125 g/ha, Postemergence",9
same,Crabgrass plant response rating,"[2]; Rate 125 g/ha, Preemergence",10
same,"Plant response rating, Crabgrass","[2]; Rate 250 g/ha, Postemergence",10
same,"Plant response rating, Crabgrass","[2]; Rate 250 g/ha, Preemergence",10
same,"Plant response rating, Crabgrass","[2]; Rate 500 g/ha, Postemergence",10
same,"Plant response rating, Crabgrass","[2]; Rate 500 g/ha, Preemergence",10
same,"Plant response rating, Wheat","[3]; Rate 62 g/ha, Postemergence",3
same,Wheat plant response rating,"[3]; Rate 62 g/ha, Preemergence",1
same,"Plant response rating, Wheat","[3]; Rate 125 g/ha, Postemergence",3
same,Wheat plant response rating,"[3]; Rate 125 g/ha, Preemergence",2
same,"Plant response rating, Wheat","[3]; Rate 250 g/ha, Postemergence",4
same,"Plant response rating, Wheat","[3]; Rate 250 g/ha, Preemergence",5
same,"Plant response rating, Wheat","[3]; Rate 500 g/ha, Postemergence",6
same,"Plant response rating, Wheat","[3]; Rate 500 g/ha, Preemergence",6
same,"Plant response rating, Giant foxtail","[4]; Rate 62 g/ha, Postemergence",4
same,Giant foxtail plant response rating,"[4]; Rate 62 g/ha, Preemergence",10
same,"Plant response rating, Giant foxtail","[4]; Rate 125 g/ha, Postemergence",5
same,Giant foxtail plant response rating,"[4]; Rate 125 g/ha, Preemergence",10
same,"Plant response rating, Giant foxtail","[4]; Rate 250 g/ha, Postemergence",9
same,"Plant response rating, Giant foxtail","[4]; Rate 250 g/ha, Preemergence",10
same,"Plant response rating, Giant foxtail","[4]; Rate 500 g/ha, Postemergence",9
same,"Plant response rating, Giant foxtail","[4]; Rate 500 g/ha, Preemergence",10
same,"Plant response rating, Rape","rape (Brassica napus); Rate 62 g/ha, Postemergence",9
same,Rape plant response rating,"rape (Brassica napus); Rate 62 g/ha, Preemergence",9
same,"Plant response rating, Rape","rape (Brassica napus); Rate 125 g/ha, Postemergence",10
same,Rape plant response rating,"rape (Brassica napus); Rate 125 g/ha, Preemergence",9
same,"Plant response rating, Rape","rape (Brassica napus); Rate 250 g/ha, Postemergence",10
same,"Plant response rating, Rape","rape (Brassica napus); Rate 250 g/ha, Preemergence",10
same,"Plant response rating, Rape","rape (Brassica napus); Rate 500 g/ha, Postemergence",10
same,"Plant response rating, Rape","rape (Brassica napus); Rate 500 g/ha, Preemergence",10
same,"Plant response rating, Soybean","soybean (Glycine max); Rate 62 g/ha, Postemergence",8
same,Soybean plant response rating,"soybean (Glycine max); Rate 62 g/ha, Preemergence",1
same,"Plant response rating, Soybean","soybean (Glycine max); Rate 125 g/ha, Postemergence",9
same,Soybean plant response rating,"soybean (Glycine max); Rate 125 g/ha, Preemergence",1
same,"Plant response rating, Soybean","soybean (Glycine max); Rate 250 g/ha, Postemergence",10
same,"Plant response rating, Soybean","soybean (Glycine max); Rate 250 g/ha, Preemergence",2
same,"Plant response rating, Soybean","soybean (Glycine max); Rate 500 g/ha, Postemergence",9
same,"Plant response rating, Soybean","soybean (Glycine max); Rate 500 g/ha, Preemergence",4
same,"Plant response rating, Velvetleaf","[5]; Rate 62 g/ha, Postemergence",10
same,Velvetleaf plant response rating,"[5]; Rate 62 g/ha, Preemergence",7
same,"Plant response rating, Velvetleaf","[5]; Rate 125 g/ha, Postemergence",10
same,Velvetleaf plant response rating,"[5]; Rate 125 g/ha, Preemergence",8
same,"Plant response rating, Velvetleaf","[5]; Rate 250 g/ha, Postemergence",10
same,"Plant response rating, Velvetleaf","[5]; Rate 250 g/ha, Preemergence",9
same,"Plant response rating, Velvetleaf","[5]; Rate 500 g/ha, Postemergence",9
same,"Plant response rating, Velvetleaf","[5]; Rate 500 g/ha, Preemergence",9
same,"Plant response rating, Corn","corn (Zea mays); Rate 62 g/ha, Postemergence",3
same,Corn plant response rating,"corn (Zea mays); Rate 62 g/ha, Preemergence",0
same,"Plant response rating, Corn","corn (Zea mays); Rate 125 g/ha, Postemergence",4
same,Corn plant response rating,"corn (Zea mays); Rate 125 g/ha, Preemergence",1
same,"Plant response rating, Corn","corn (Zea mays); Rate 250 g/ha, Postemergence",5
same,"Plant response rating, Corn","corn (Zea mays); Rate 250 g/ha, Preemergence",3
same,"Plant response rating, Corn","corn (Zea mays); Rate 500 g/ha, Postemergence",5
same,"Plant response rating, Corn","corn (Zea mays); Rate 500 g/ha, Preemergence",4
same,"Plant response rating, Wild oats","wild oat (Avena fatua); Rate 62 g/ha, Postemergence",3
same,Wild oats plant response rating,"wild oat (Avena fatua); Rate 62 g/ha, Preemergence",5
same,"Plant response rating, Wild oats","wild oat (Avena fatua); Rate 125 g/ha, Postemergence",4
same,Wild oats plant response rating,"wild oat (Avena fatua); Rate 125 g/ha, Preemergence",8
same,"Plant response rating, Wild oats","wild oat (Avena fatua); Rate 250 g/ha, Postemergence",6
same,"Plant response rating, Wild oats","wild oat (Avena fatua); Rate 250 g/ha, Preemergence",9
same,"Plant response rating, Wild oats","wild oat (Avena fatua); Rate 500 g/ha, Postemergence",8
same,"Plant response rating, Wild oats","wild oat (Avena fatua); Rate 500 g/ha, Preemergence",9
same,"Plant response rating, Sugarbeets","[6]; Rate 62 g/ha, Postemergence",10
same,Sugarbeets plant response rating,"[6]; Rate 62 g/ha, Preemergence",9
same,"Plant response rating, Sugarbeets","[6]; Rate 125 g/ha, Postemergence",10
same,Sugarbeets plant response rating,"[6]; Rate 125 g/ha, Preemergence",10
same,"Plant response rating, Sugarbeets","[6]; Rate 250 g/ha, Postemergence",10
same,"Plant response rating, Sugarbeets","[6]; Rate 250 g/ha, Preemergence",10
same,"Plant response rating, Sugarbeets","[6]; Rate 500 g/ha, Postemergence",9
same,"Plant response rating, Sugarbeets","[6]; Rate 500 g/ha, Preemergence",10
same,"Plant response rating, Bedstraw","[7]; Rate 62 g/ha, Postemergence",10
same,Bedstraw plant response rating,"[7]; Rate 62 g/ha, Preemergence",4
same,"Plant response rating, Bedstraw","[7]; Rate 125 g/ha, Postemergence",10
same,Bedstraw plant response rating,"[7]; Rate 125 g/ha, Preemergence",7
same,"Plant response rating, Bedstraw","[7]; Rate 250 g/ha, Postemergence",10
same,"Plant response rating, Bedstraw","[7]; Rate 250 g/ha, Preemergence",10
same,"Plant response rating, Bedstraw","[7]; Rate 500 g/ha, Postemergence",10
same,"Plant response rating, Bedstraw","[7]; Rate 500 g/ha, Preemergence",9
same,"Plant response rating, Rice",rice (Oryza sativa); [11],5
same,"Plant response rating, Rice",rice (Oryza sativa); [12],6
same,"Plant response rating, Rice",rice (Oryza sativa); [13],7
same,"Plant response rating, Rice",rice (Oryza sativa); [14],8
same,"Plant response rating, Ducksalad",[8]; [11],4
same,"Plant response rating, Ducksalad",[8]; [12],6
same,"Plant response rating, Ducksalad",[8]; [13],7
same,"Plant response rating, Ducksalad",[8]; [14],6
same,"Plant response rating, Barnyardgrass",[9]; [11],5
same,"Plant response rating, Barnyardgrass",[9]; [12],5
same,"Plant response rating, Barnyardgrass",[9]; [13],7
same,"Plant response rating, Barnyardgrass",[9]; [14],8
same,"Plant response rating, S. Flatsedge",[10]; [11],8
same,"Plant response rating, S. Flatsedge",[10]; [12],9
same,"Plant response rating, S. Flatsedge",[10]; [13],9
same,"Plant response rating, S. Flatsedge",[10]; [14],9
